According to patent publication US20110142884A1, “Materials and Methods for Making Improved Micelle Compositions” (The Board of Trustees of the University of Illinois, priority 2002, published 2011):

Tested on: second order arterioles of the hamster cheek pouch microcirculation
Test: Hamster cheek pouch microcirculation, arteriolar diameter during suffusion
Format: in vivo
Settings: native VIP alone, suffusion
Protocol: According to this example, the vasorelaxant effects of VIP in a SSM were determined according to the following method. Specifically, adult male golden Syrian hamsters were purchased from Sasco (Omaha, Nebr.). Adult male hamsters with spontaneous hypertension and their normotensive controls were purchased from the Canadian Hybrid Farms (Halls Harbour, NS, Canada). Hypertensive animals have been identified after cross-breeding of hamsters with hereditary cardiomyopathy and normal golden Syrian hamsters. These albino animals have previously been used in our laboratory (Rubinstein et al., Biochem. Biophys. Res. Commun. 183:1117-1123 (1992); Artwohl et al., FASEB J. 10:A629 (1996)). Animals were anesthetized with pentobarbital sodium (6 mg/100 g body weight, i.p.). A tracheotomy was performed to facilitate spontaneous breathing. A femoral vein was cannulated to inject supplemental anesthesia during the experiment (2-4 mg/100 g body weight/h). Body temperature was maintained constant (37-38° C.) and monitored via heating pad and a feed back controller throughout the experiment.
The bioactivity of the VIP in SSM by diffusing it in situ was determined by visualization of the microcirculation of the hamster cheek pouch. The microcirculation of the cheek pouch was visualized locally by a method previously developed in our laboratory (Suzuki et al., Life Sci. 57:1451-1457 (1995); Suzuki et al., Am. J. Physiol. 271:R393-R397 (1996); and Suzuki et al., Am. J. Physiol. 271:H282-H287 (1996)). Briefly, the left cheek pouch was spread over a small plastic baseplate, and an incision was made in the outer skin to expose the cheek pouch membrane. The connective avascular tissue layer was removed, and a plastic chamber was placed over the baseplate and secured in place by suturing the skin around the upper chamber. This forms a triple-layered complex: the baseplate, the exposed cheek pouch membrane, and the upper chamber. After these initial procedures, the hamster is transferred to a heated microscope stage. The chamber was connected to a reservoir containing warmed bicarbonate buffer (37-38° C.) that allowed continuous suffusion of the cheek pouch. The buffer was bubbled continuously with 95% N2-5% CO2 (pH 7.4). […]
The cheek pouch microcirculation was epi-illuminated with a 100-W mercury light source and viewed through a microscope (Nikon, Tokyo, Japan) at a magnification of ×40. […] The inner-wall diameter of second order arterioles ([…]), which modulated vascular resistance in the cheek pouch, (Raud, Acta Physiol. Scand. (Suppl.) 578:1-58 (1989); Suzuki et al., Life Sci. 57:1451-1457 (1995); Suzuki et al., Am. J. Physiol. 271:R393-R397 (1996)) was measured from the video display of the microscope image using a videomicrometer (VIA 100; Boeckeler Instruments, Tucson, Ariz.). […]

vasoactive intestinal peptide [VIP]
effects on the arteriolar diameter: no significant effects
